Assay results published in US7550469B2, “Heterocyclic amide derivatives and their use as dopamine D3 receptor ligands” (Aventis Pharmaceuticals Inc., priority 2001, dated 2009).

The compounds below were run against T1, cloned human dopamine D3 receptors (Homo sapiens, UniProt P35462) (assay: [N-Methyl-3H]Spiroperidol binding to cloned human dopamine D3 receptors (Protocol 1)). Conditions: Table 2; read-out: D3K1.
T1 construct: expressed in transfected cells; membrane homogenate
Summary of the method: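 Membranes from CHO cells stably expressing cloned human D3 receptor were used for [N-methyl-3H]spiroperidol (60-90 Ci/mmol) binding. Assay buffer was 0.05 M Tris HCl pH 7.7 with 120 mM NaCl, 5 mM KCl, 2 mM CaCl2 and 1 mM MgCl2, optionally 0.1% ascorbic acid; total ligand concentration calculated from added CPM.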

T1 sequence (P35462 whole entry): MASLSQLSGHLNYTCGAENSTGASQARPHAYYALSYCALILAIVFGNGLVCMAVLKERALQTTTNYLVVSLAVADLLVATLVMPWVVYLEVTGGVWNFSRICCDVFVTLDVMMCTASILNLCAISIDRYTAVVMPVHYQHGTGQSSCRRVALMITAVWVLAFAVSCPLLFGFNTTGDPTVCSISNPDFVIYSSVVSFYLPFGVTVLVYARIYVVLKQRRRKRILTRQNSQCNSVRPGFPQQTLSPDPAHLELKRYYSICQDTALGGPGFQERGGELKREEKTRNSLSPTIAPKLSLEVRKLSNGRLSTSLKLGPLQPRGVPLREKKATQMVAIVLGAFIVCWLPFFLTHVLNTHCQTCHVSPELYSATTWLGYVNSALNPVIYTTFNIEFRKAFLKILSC

| Ki [nM] | Compound |
| --- | --- |
| 3.43 | O=C(NCCCCN1CCN(c2csc3cc(C(F)(F)F)ccc23)CC1)c1ccc(-c2ccccc2)cc1 [815547A] |

Same assay, conditions: read-out: D3K1

| Ki [nM] | Compound |
| --- | --- |
| 1.9 | O=C(NCCCCN1CCN(c2csc3cc(C(F)(F)F)ccc23)CC1)c1cc2ccccc2s1 [814238A] |
| 49 | O=C(NCCCCN1CCN(c2csc3cc(C(F)(F)F)ccc23)CC1)c1sc2ccccc2c1Cl [compound 815546] |

Second part, the compound before the results:

| Compound | Ki [nM] |
| --- | --- |
| CCOc1ccc(C(=O)NCCCCN2CCN(c3csc4cc(C(F)(F)F)ccc34)CC2)cc1 [compound 815541] | 12 |
| O=C(NCCCCN1CCN(c2csc3cc(C(F)(F)F)ccc23)CC1)c1ccc(F)cc1F [compound 815542] | 5.6 |
| O=C(NCCCCN1CCN(c2csc3cc(C(F)(F)F)ccc23)CC1)c1ccc2c(c1)OCO2 [compound 815544] | 1.7 |
| CCCCOc1ccc(C(=O)NCCCCN2CCN(c3csc4cc(C(F)(F)F)ccc34)CC2)cc1 [compound 815545] | 38.6 |
| O=C(NCCCCN1CCN(c2csc3cc(C(F)(F)F)ccc23)CC1)c1ccc(Cl)cc1 [compound 815548] | 1.6 |
| O=C(NCCCCN1CCN(c2csc3cc(C(F)(F)F)ccc23)CC1)c1ccc(Br)cc1 [compound 815551] | 4.3 |
| COc1ccccc1C(=O)NCCCCN1CCN(c2csc3cc(C(F)(F)F)ccc23)CC1 [compound 815554] | 9.7 |
| O=C(NCCCCN1CCN(c2csc3cc(C(F)(F)F)ccc23)CC1)c1ccc(C(F)(F)F)cc1 [compound 815555] | 7 |
| O=C(NCCCCN1CCN(c2csc3cc(C(F)(F)F)ccc23)CC1)c1ccco1 [compound 815556] | 6.4 |
| O=C(NCCCCN1CCN(c2csc3cc(C(F)(F)F)ccc23)CC1)c1c(F)cccc1F [compound 815557] | 8.7 |

Same assay, conditions: the 13th table, unit inferred; read-out: D3Ki

| Ki [nM] | Compound |
| --- | --- |
| 2.45 | O=C(NCCCCN1CCCN(c2csc3cc(F)ccc23)CC1)c1ccc2ccccc2c1 [822223G] |
| 1.07 | O=C(NCCCCN1CCCN(c2csc3cc(F)ccc23)CC1)c1cc2ccccc2s1 [822224G] |
| 0.066 | O=C(NCCCCN1CCCN(c2csc3cc(F)ccc23)CC1)c1ccco1 [S981843] |
| 4.5 | O=C(NCCCCN1CCCN(c2csc3cc(F)ccc23)CC1)c1ccc(OC(F)(F)F)cc1 [compound 822152] |
| 5.3 | O=C(NCCCCN1CCCN(c2csc3cc(F)ccc23)CC1)c1cccc(F)c1 [compound 822154] |
| 1.4 | COc1ccccc1C(=O)NCCCCN1CCCN(c2csc3cc(F)ccc23)CC1 [compound 822157] |
| 10.5 | CC(C)(C)c1ccc(C(=O)NCCCCN2CCCN(c3csc4cc(F)ccc34)CC2)cc1 [compound 822198] |
